Assay results as given in patent US20080199484A1, “Use Of Cox-2 Inhibitor to Prevent T-Cell Anergy Induced By Dendritic Cell Therapy” (CEDARS-SINAI MEDICAL CENTER, priority 2003, published 2008).

Legend:
[1] = system: CD11c+ DCs; assay: Flow cytometric analysis of DC surface and maturation markers (CD86, HLA-DR, CD83, CCR7); assay type: cell-based, human; conditions: FIG. 3; for CD83 and CCR7 expression (maturation markers) / CD86 expression, geometric mean: single-cultured iDCs; for CD83 and CCR7 expression (maturation markers): 16 hours co-stimulation, TNF-α 20 ng/ml; for CD86 expression, geometric mean: 16 hours, TRAIL 300 ng/ml and/or PGE2 0.1 μM, untreated iDCs: 647
Experimental: Human PBMCs were separated from peripheral blood of a healthy donor and the aforementioned glioblastoma patient using Ficoll-Hypaque density centrifugation. PBMC were resuspended in X-Vivo 15 serum-free medium (obtained from Cambrex; Santa Rosa, Calif.) and allowed to adhere to 24-well culture plate at 37° C. The non-adherent cells were removed after 2 hours. CD4+ and CD8+ cells were isolated from these non-adherent cells with MiniMACS cell separation unit (obtained from Milenyi Biotec, Auburn, Calif.) and microbeads conjugated mouse monoclonal anti-human CD4 and CD8 antibody (obtained from Milenyi Biotec). CD4+ and CD8+ cells were used for mixed lymphocyte reaction (MLR) described later. The adherent cells were subsequently cultured in X-Vivo 15 serum-free medium. 20 ng/ml GM-CSF (obtained from BioSource International) and 10 ng/ml IL-4 (obtained from BioSource International) were added to the cultures on days 0, 2, and 4. After 7-day culture, the floating cells were transferred to fresh plates with fresh X-Vivo 15 medium as immature DCs (iDCs). Several iDCs were cultured with 300 ng/ml TRAIL and/or 0.1 μM PGE2 (obtained from Sigma) and/or 20 ng/ml TNF-α for 16 hours (TRAIL-DCs, PGE2-DCs, TRAIL/PGE2-DCs, TRAIL/TNF-α-DCs, TRAIL/TNF-α/PGE2-DCs).
(§1) Glioma cells were plated to 6-well culture plate at density of 1×10^6 cells/well/2 ml with fresh X-Vivo 15 medium. Several glioma cells were pre-treated with the COX-2 inhibitor NS-398 for 8 hours. The NS-398 treated glioma cells were cultured with TNF-α, TRAIL, and NS-398. The other cells were cultured with TNF-α and TRAIL. After 24 hours culture with these agents, iDCs were put into the wells at the density of 3×10^5 cells/well, and were co-cultured with glioma cells for 16 hours. Several iDCs were cultured with TNF-α/TRAIL or TNF-α/TRAIL/NS-398 without tumor cells. Human glioma cell lines (U-87MG and LN-18) and stable transfectants (LN-18-COX-2 and LN-18-EP) were co-cultured with healthy donor iDCs, and MG-377 were co-cultured with autologous iDCs.
Monoclonal mouse anti-human antibodies of PE-conjugated CD83, CD86, HLA-DR (obtained from Phamingen), FITC-conjugated CD11c (obtained from BioSource International), and unconjugated CCR7 (R&D Systems; Minneapolis, Minn.) were used for cell surface analysis of DCs. PE-conjugated F(ab′)2 goat anti-mouse immunoglobulins (obtained from DAKO Cytomation; Carpinteria, Calif.) was used for secondary antibody. Mouse IgG1 and IgG2a (obtained from Phamingen) were used for isotype control. DCs were stained with anti-CD86, HLA-DR, CD83, and CCR7 antibodies before staining with anti-CD11c antibody, and CD11c+DCs were isolated with MiniMACS cell separation unit and microbeads-conjugated anti-FITC antibody (obtained from Milenyi Biotec).
DCs were stained with anti-CD86, HLA-DR, CD83, CCR7, and CD11c antibody. CD11c+ DCs were isolated with cell separation unit and microbease-conjugated anti-FITC antibody.

[2] = system: CD4+ T cells; assay: Mixed lymphocyte reaction and IFN-γ/IL-10 ELISPOT (Th cell polarization); assay type: cell-based, human
[3] = system: COX-2 protein in human glioma cells (U-87MG, LN-18, MG-377); assay: Western blot of COX-2 protein expression in human glioma cells; assay type: cell-based; conditions: glioma cells treated with TRAIL and TNF-α plus COX-2 inhibitor (NS-398 10 μM); FIG. 1A
Experimental: Samples were extracted with buffer containing 1% Triton X-100, 150 mM NaCl, 50 mM Tris (hydroxymethyl aminomethane) (pH 7.5) and 1 mM phenylmethylsulfonyl fluoride (PMSF). The cell debris was removed by centrifugation at 14,000 g for 20 minutes and the supernatant was subjected to SDS polyacrylamide gel electrophoresis (SDS-PAGE) and loaded on a 7.5% polyacrylamide gel (obtained from Bio-Rad; Hercules, Calif.). Electrophoretic transfer to nitrocellulose membranes (obtained from Amersham Biosciences; Piscataway, N.J.) was followed by immunoblotting with a mouse IgG1 anti-COX-2 antibody (obtained from Phamingen) or a mouse IgG1 anti-beta-tublin (obtained from Sigma). This was followed by hybridization with a peroxidase-linked anti-mouse IgG antibody (obtained from Amersham Bioscience). The signal was detected by chemiluminescence using ECL detection system (obtained from Amersham Bioscience) and Hyperfilm ECL (obtained from Amersham Bioscience).
Expression of COX-2 protein in human glioma cells was examined by Western blot (FIG. 1A).

[4] = system: glioma cells (U-87MG, LN-18, MG-377); iDCs; assay type: cell-based; conditions: NS-398 treatment; data not shown
[5] = system: isolated CD11c+ DCs; assay: IL-10 and IL-12p70 ELISA in supernatants of DC cultures; assay type: cell-based, human; conditions: FIG. 4
Experimental: as §1
PGE2 ELISA kit (obtained from Cyman Chemical; Ann Arbor, Mich.) was used according to the manufacture's protocol for measurement in the supernatants of glioma cell cultures. IL-10 and IL-12 p70 ELISA kits (obtained from Phamingen) were used according to the manufacture's protocols for measurement in the supernatants of cultures of tumor cells or isolated CD11c+ DCs. CD40-CD40L interaction is a main trigger of IL-12 production by DCs (Cella, M. et al., “Ligation of CD40 on dendritic cells triggers production of high levels of interleukin-12 and enhances T cell stimulatory capacity: T-T help via APC activation,” J. Exp. Med., Vol. 184, pp. 747-752 (1996)). Based on this evidence, cells were co-cultured with NIH-CD40L cells (obtained from Dr. Gang Zeng, National Cancer Institute, N11, MD; the ratio of NIH-CD40L:DCs=1:1) for 16 hours, and the supernatants of co-cultures were used as the samples. The lower detection limit of each kit was 7.8 pg/ml. All samples and standards were run in duplicate.
IL-10 and IL-12p70 in the supernatants of cultures were measured by ELISA, and the results were statistically compared with NS-398(−) single-cultured DCs (FIG. 4).

[6] = system: PGE2 in the supernatants of glioma cell cultures; assay: PGE2 ELISA in supernatants of glioma cell cultures; assay type: cell-based, human; conditions: for PGE2 in the culture supernatants (ELISA): FIG. 1B
Experimental: Tumor cells, including U-87MG human glioma cell line (obtained from American Type Culture Collection; Rockville, Md.), LN-18 cell line (obtained from Dr. Erwin Van Meier, Emory University; Atlanta, Ga.), and primary cultured human glioma MG-377 (obtained from surgical specimen of a glioblastoma patient at neurosurgical institute, Cedars-Sinai Medical Center; Los Angeles, Calif.), were maintained at 37° C. and 5% CO2 in Dulbecco's Modified Eagles Medium (available from Sigma; St. Louis, Mo.; hereinafter “DMEM”) supplemented with 10% heat-inactivated fetal bovine serum (available from Sigma; hereinafter “[…]”), 2 mM […], 10 mM HEPES (available from Sigma), 100 U/ml penicillin (available from Sigma), 100 μg/ml streptomycin (available from Sigma). 100% di-methyl sulfonyl oxygen (available from Sigma; hereinafter “DMSO”) dissolved NS-398 (selective COX-2 inhibitor; obtained from Cayman Chemical) was used at concentrations of 10 μM. Recombinant human TNF-α (obtained from BioSource International; Camarillo, Calif.) was used at a concentration of 20 ng/ml and TRAIL (obtained from PeproTech Inc.; Rocky Hill, N.J.) was used at a concentration of 300 ng/ml.
as §1, with “iDCs. […]” for “iDCs.”
PGE2 in the culture supernatants was measured by ELISA (FIG. 1B).

[7] = system: COX-2 overexpressing glioma cells; conditions: supplementing with recombinant IL-12, in the absence of COX-2 inhibitor; cited from earlier work
[8] = DCs co-cultured with NS-398 treated glioma
[9] = single-cultured DCs, compared with NS-398(−) single-cultured DCs

## CCCCC[C@H](O)/C=C/[C@H]1[C@H](O)CC(=O)[C@@H]1C/C=C\CCCC(=O)O [PGE2, ProstaglandinE2]
[1]
  CD83 and CCR7 expression (maturation markers): did not induce CD83 or CCR7 expression
  CD86 expression, geometric mean: 2779
[2]; soluble PGE2 added into culture supernatant of LN-18-EP
  Th cell polarization by tumor-infiltrating DCs: same effect on Th2 polarization as LN-18-COX-2

## TNF-α
[1]
  CD83 and CCR7 expression (maturation markers): induced both CD83 and CCR7 expressions

## CS(=O)(=O)Nc1ccc([N+](=O)[O-])cc1OC1CCCCC1 [NS-398]
[1]; DCs co-cultured with glioma cells, with or without NS-398 treatment
  geometric means of the expressing markers (CD86, HLA-DR, CD83, CCR7): no statistical difference
[3]
  COX-2 expression (Western blot): did not extinguish the COX-2 expression
[4]
  death ratio in each glioma: did not cause a change of the death ratio
[5]; [8]
  IL-10 (ELISA): downregulation of IL-10
  IL-12 (ELISA): augmentation of IL-12
[5]; [9]
  IL-10 production (ELISA): did not effect to change
  IL-12p70 production (ELISA): did not effect to change
[6]; LN-18, each group
  PGE2 in the culture supernatants (ELISA): no significant difference
[6]; LN-18-COX-2 stable transfectant
  PGE2 produced by the COX-2 transfectant: suppressed the PGE2
[6]; U-87MG and MG-377, addition of NS-398 10 μM to TRAIL/TNF-α cultures, p<0.01
  PGE2 in the culture supernatants (ELISA): significantly reduced
[2]; DCs co-cultured with COX-2-inhibited glioma cells, FIG. 5A-F
  DC-mediated Th cell polarization: bias toward Th1
[2]; LN-18-COX-2 stable transfectant with COX-2 inhibitor
  Th cell polarization by tumor-infiltrating DCs: polarizing the Th cells toward Th1
[2]; co-culture of primary glioma (MG-377) with autologous DCs, FIG. 5E
  IL-10 expression (ELISPOT): decrease in IL-10
[2]; co-culture of primary glioma (MG-377) with autologous DCs, FIG. 5F
  interferon-gamma expression (ELISPOT): decrease in interferon-gamma
[2]; co-cultured DCs and glioma, FIG. 5A, 5B
  IL-10 expression (ELISPOT): decrease in IL-10 expression
[2]; co-cultured DCs and glioma, FIG. 5C, 5D
  interferon-gamma expression (ELISPOT): increase in interferon-gamma expression

B1: recombinant IL-12: recombinant IL-12 supplementing DC-based glioma immunotherapy (Akasaki et al.) (protein, UniProt P43431 23-215; P43432 23-335, looked up)
Interleukin-12 subunit alpha: RVIPVSGPARCLSQSRNLLKTTDDMVKTAREKLKHYSCTAEDIDHEDITRDQTSTLKTCLPLELHKNESCLATRETSSTTRGSCLPPQKTSLMMTLCLGSIYEDLKMYQTEFQAINAALQNHNHQQIILDKGMLVAIDELMQSLNHNGETLRQKPPVGEADPYRVKMKLCILLHAFSTRVVTINRVMGYLSSA
Interleukin-12 subunit beta: MWELEKDVYVVEVDWTPDAPGETVNLTCDTPEEDDITWTSDQRHGVIGSGKTLTITVKEFLDAGQYTCHKGGETLSHSHLLLHKKENGIWSTEILKNFKNKTFLKCEAPNYSGRFTCSWLVQRNMDLKFNIKSSSSSPDSRAVTCGMASLSAEKVTLDQRDYEKYSVSCQEDVTCPTAEETLPIELALEARQQNKYENYSTSFFIRDIIKPDPPKNLQMKPLKNSQVEVSWEYPDSWSTPHSYFSLKFFVRIQRKKEKMKETEEGCNQKGAFLVEKTSTEVQCKGGNVCVQAQDRYYNSSCSKWACVPCRVRS
[7]
  therapeutic effect of DC-based glioma immunotherapy: potent therapeutic effect

B2: TRAIL: TNF-related apoptosis inducing ligand, obtained from PeproTech, used at 300 ng/ml (protein, UniProt P50591 1-281, looked up)
Tumor necrosis factor ligand …: MAMMEVQGGPSLGQTCVLIVIFTVLLQSLCVAVTYVYFTNELKQMQDKYSKSGIACFLKEDDSYWDPNDEESMNSPCWQVKWQLRQLVRKMILRTSEETISTVQEKQQNISPLVRERGPQRVAAHITGTRGRSNTLSSPNSKNEKALGRKINSWESSRSGHSFLSNLHLRNGELVIHEKGFYYIYSQTYFRFQEEIKENTKNDKQMVQYIYKYTSYPDPILLMKSARNSCWSKDAEYGLYSIYQGGIFELKENDRIFVSVTNEHLIDMDHEASFFGAFLVG
[1]
  CD83 and CCR7 expression (maturation markers): did not induce CD83 or CCR7 expression
  CD86 expression, geometric mean: 1086
